# What was measured:
# [1] = test system: progesterone receptor (PR) expression in human fimbriae; experiment: 3D human fimbriae culture: progesterone receptor immunohistochemistry; type: cell-based; conditions: 1 nM and 10 nM E2
# Description: (§1) Tissues were micro-dissected in alpha-MEM (Gibco, Carlsbad, Calif.) with 1% penicillin-streptomycin (Invitrogen, Carlsbad, Calif.). Individual fimbriae were separated into ˜50 mm^3 pieces. A portion of the tissue was fixed in 2% paraformaldehyde for use as an uncultured control. For optimization studies, fimbriae were cultured without matrix, encapsulated in 0.5% alginate, or encapsulated in 0.5% alginate with 1 mg/ml collagen and 0.1% fibronectin, as previously described for murine cultures (King et al. J Vis Exp. 2011.; herein incorporated by reference in its entirety). For subsequent treatments, 0.5% alginate encapsulated fimbriae were randomly assigned to treatment groups, with at least five fimbriae per condition, per patient, in a 24-well plate containing alpha-MEM and 1% penicillin-streptomycin. […] Prior to fixation, fimbriae were labeled with 10 μM bromodeoxyurine (BrdU, Sigma-Aldrich) for 24 hours to denote proliferating cells. Fimbriae cultures were fixed (2% paraformaldehyde) followed by dehydration in ethanol and xylene, and embedment in paraffin.
# (§2) Sections (5 μm) were cut and stained via hematoxylin and eosin for morphological analysis or immunohistochemistry was performed to localize proteins of interest as previously described (King et al. Endocr Relat Cancer. 2011. 18:627-42.; herein incorporated by reference in its entirety). […]
# [2] = test system: p53 stabilization in FTE; experiment: 3D human fimbriae culture: p53 immunohistochemistry; type: cell-based; conditions: 2 and 7 days treatment, n=8
# Description: as §1
# as §2, with “entirety). Slides were rehydrated through an ethanol gradient, prior to 0.1M sodium citrate retrieval and peroxidase block.” for “entirety).”
# Immunohistochemistry images were taken via a Nikon E600 microscope, DXM1200 digital camera and NIS Elements software (Nikon Instruments, Melville, N.Y.). […] BrdU sections were imaged and epithelial cells (CK8 positive) were quantified for proliferation via ImageJ software (NIH, Bethesda, Md.). At least three fimbriae with 200 or more FTE were quantified for each treatment. Analysis of p53 staining was similar, with at least three fimbriae per treatment, per patient analyzed. Samples with p53 expression were quantified utilizing adjacent sections stained for the secretory cell marker PAX8 in a qualitative manner as described.
# [3] = test system: FGF2; experiment: ELISA of fallopian culture medium: FGF2; type: cell-based, human; conditions: 10 nM E2, 7 days, n=6; not significantly altered
# Description: as §1, with “Fimbriae cultures were fixed (2% paraformaldehyde) followed by dehydration in ethanol and xylene, and embedment in paraffin.” left out
# (§3) IL8, VEGF-A, and FGF2 were detected in fallopian culture medium by enzyme-linked immunosorbent assay for human IL8 (EMD Millipore, Billerica, Mass., USA), VEGF-A (RayBiotech, GA, USA), or FGF2 (Abcam) respectively using the manufacturers' protocols. […] Results were normalized to total protein content as determined by western blotting and Ponceau staining to account for difference in tissue size between treatment groups. […]
# [4] = test system: VEGF-A; experiment: ELISA of fallopian culture medium: VEGF-A; type: cell-based, human; conditions: 10 nM E2, 7 days, n=7; not significantly altered
# Description: as §1, with “Fimbriae cultures were fixed (2% paraformaldehyde) followed by dehydration in ethanol and xylene, and embedment in paraffin.” left out
# as §3
# [5] = test system: human fallopian tube epithelium; experiment: Fallopian epithelia cilia beating quantification; type: cell-based; conditions: 7 days culture; P4 added to E2
# Description: Human fallopian tissue was obtained from routine hysterectomies from women in their reproductive years (ages range from 26 to 50 years old) and who had not undergone exogenous hormonal treatment for at least three months prior to surgery. Informed consent was obtained from each patient and approval granted by the ethics committee of the Northwestern University. Human fallopian tissue was kept in the DMEM/F12 medium with 10% FBS on ice and processed within 24 hours. The tissue was washed with warm PBS solution two times before being transferred into warm dissection medium (Liebowitz 15 with 0.5% P/S and 10% FBS). After cleaning connective tissue from outside of the fallopian tissue, the fallopian tube was cut open and the inner epithelia layer was mechanically dissected using forceps. […]
# Fallopian epithelia layers were cultured in estradiol (E2) 1 nM, E2 1 nM+progesterone (P4) 10 nM, E2 0.1 nM+P4 50 nM or with solvent only negative control for 7 days. Cilia beating movies were acquired using an Andor Spinning Disk Confocal with 5 ms exposure time and 5 ms readout time. […] The Multiple Kymograph plugin for the NIH ImageJ software was used to quantify cilia beating frequency. In each movie, 8 clusters of cilia were picked for the cilia beating quantification.
# [6] = test system: OVGP1 expression in human fallopian epithelium; experiment: OVGP1 immunoblot of cultured fallopian epithelium lysate; type: cell-based
# Description: Human fallopian tissue was obtained from routine hysterectomies from women in their reproductive years (ages range from 26 to 50 years old) and who had not undergone exogenous hormonal treatment for at least three months prior to surgery. Informed consent was obtained from each patient and approval granted by the ethics committee of the Northwestern University. Human fallopian tissue was kept in the DMEM/F12 medium with 10% FBS on ice and processed within 24 hours. The tissue was washed with warm PBS solution two times before being transferred into warm dissection medium (Liebowitz 15 with 0.5% P/S and 10% FBS). After cleaning connective tissue from outside of the fallopian tissue, the fallopian tube was cut open and the inner epithelia layer was mechanically dissected using forceps. […] Tissue was cultured on 0.4 μm pore Millicell inserts (PICM03050, EMD Millipore Co, Billerica, Mass., USA) twelve-well plates with culture medium in a 37° C. and 5% CO2 incubator. Estrogen (E2) and progesterone (P4) used in tissue culture experiments were purchased from Sigma (St. Louis, Mo.).
# Cultured human fallopian epithelia layers were homogenized with a minipestle in ice-cold lysis buffer (20 mM Tris-HCl, pH 8.0, 137 mM NaCl, 10% glycerol, 1% NP-40, 2 mM EDTA). Lysate normalized for protein content was loaded into NuPAGE 4-12% gradient Bis-Tris precast SDS-PAGE gels and transferred to a nitrocellulose membrane (Life Technologies, Carlsbad, Calif., USA). Blots were probed by polyclonal anti-OVGP1 antibody (LsBio, Cambridge, Mass.) overnight in 4° C. followed by anti-rabbit secondary antibody conjugated to horseradish peroxidase (Zymed, San Francisco, Calif.). Proteins were detected by ECL primer (GE HealthCare Life Sciences, Pittsburgh, Pa.) and exposed to X-ray film (Kodak, Rochester, N.Y.). The same blot was stripped using stripping buffer (Thermo Scientific, Hanover Park, Ill.) and re-probed with monoclonal anti-α-tubulin (Sigma, St. Louis, Mo.) followed by an anti-mouse secondary antibody conjugated to horseradish peroxidase. NIH ImageJ Imaging Software was used to quantify the density of western blot bands. Conditioned medium from fallopian epithelia cultures was collected and probed via western blot analysis using a polyclonal anti-hIGF1 antibody (abcam, Cambridge, Mass.). The blot was detected by the same method described above.
structure (smiles),measurement,setting,value
"C[C@]12CC[C@@H]3c4ccc(O)cc4CC[C@H]3[C@@H]1CC[C@@H]2O [E2, estradiol]",progesterone receptor (PR) expression compared to vehicle control,[1],induction
same,p53 stabilization,[2],no factor notably induced p53 stabilization
same,FGF2 decrease compared to vehicle control,[3],9%±8%
same,VEGF-A increase compared to vehicle control,[4],140%±75%
same,cilia beating frequency (CBF),[5],significantly increased
same,OVGP1 expression in the fallopian lysate,"[6]; 7 days culture, P4 added to E2",induction
same,OVGP1 expression,"[6]; 28 days stepwise E2 and P4 treatment, P4 in the presence of E2",stimulated
